Like-named read-outs stand apart in the source and are kept apart here.
How the values were obtained:
[1] = From the text: Parameters such as the lethal dose 50 (LD50), lethal concentration 50 (LC50), cardiac sensitization, skin irritation, and mutagenicity (e.g., via the Ames test) can be used as toxicity metrics. The LDn or LCn abbreviations, where n is the percent lethality, are used for the dose of a toxicant lethal to n % of a test population. […] Cardiac sensitization is a measure of the ability of a compound to cause cardiac arrhythmia under stress.
The property modification components are chosen from a list of potential replacement solvents. These compounds included halogenated compounds such as halogenated acetates, alcohols, alkanes, cycloalkanes, alkenes, cycloalkenes, amines, anhydrides, aromatics, carbonyls, diones, esters, ethers, heterocyclics and ketones.

[2] = solubility parameter, Table 1; cited from earlier work
[3] = Table 1; cited from earlier work
[4] = cardiac sensitization relative to CFC-113

Row | Compound | CS/CS113 [1, 4] | SP [2] | BP [3] | CS/CS113 [1]
1 | 1-bromo-bis(perfluoromethyl)ethylene | 42.7 | 7.06 (cal/cm^3)^1/2 | 45.1 C. | 
2 | OC(C(F)(F)F)(C(F)(F)F)C(F)(F)F [1,1,1,3,3,3-hexafluoro-2-(trifluoromethyl)-2-propanol] | 61.2 | 6.84 (cal/cm^3)^1/2 | 46.0 C. | 
3 | FC(F)(Br)C=C(C(F)(F)F)C(F)(F)F [1,1,1,4,4-pentafluoro-4-bromo-2-trifluoromethyl-2-butene] | 105.5 | 6.77 (cal/cm^3)^1/2 | 61.0 C. | 
4 | O=C(CC(=O)C(F)(F)F)C(F)(F)F [1,1,1,5,5,5-hexafluoro-2,4-pentanedione] |  | 6.90 (cal/cm^3)^1/2 | 69.9 C. | 140.5
5 | O=C(CC(F)(F)F)C(F)(F)Br [1,1,4,4,4-pentafluoro-1-bromo-2-butanone] | 17.1 | 7.89 (cal/cm^3)^1/2 | 89.0 C. | 
6 | O=C(CC(F)(F)F)CC(F)(F)Br [1,1,5,5,5-pentafluoro-1-bromo-3-pentanone] | 34.2 | 7.89 (cal/cm^3)^1/2 | 118.4 C. | 
7 | FC(F)(F)C(F)(F)C(F)(F)C(F)(F)/C=C\C(F)(F)C(F)(F)C(F)(F)C(F)(F)F [1,2-(Z)-bis(perfluoro-n-butyl)ethylene] | 1188.5 | 6.81 (cal/cm^3)^1/2 | 132.0 C. | 
8 | FC1(F)C(Cl)=C(Cl)C(F)(F)C(F)(F)C1(F)F [1,2-dichloro-3,3,4,4,5,5,6,6-octafluoro-cyclohexene] | 15.5 | 7.55 (cal/cm^3)^1/2 | 123.8 C. | 
9 | FC1(F)C(Cl)=C(Cl)C(F)(F)C1(F)F [1,2-dichloro-hexafluoro-cyclopentene] | 9.9 | 7.90 (cal/cm^3)^1/2 | 90.0 C. | 
10 | FC(Cl)C(F)(F)C(F)(F)Cl (stereo not shown) [1,3-dichloro-1,1,2,2,3-pentafluoropropane] | 9.2 | 7.31 (cal/cm^3)^1/2 | 52.7 C. | 
11 | FC1=C(OCC(F)(F)F)C(F)(F)C(F)(F)C(F)(F)C1(F)F [1-(2,2,2-trifluoroethoxy)nonafluoro-cyclohexene] | 70.2 | 7.51 (cal/cm^3)^1/2 | 113.7 C. | 
12 | C=C(OC(F)(F)Br)C(F)(F)F [1-(bromodifluoromethoxy)-1-(trifluoromethyl)ethene] | 27.7 | 7.67 (cal/cm^3)^1/2 | 66.3 C. | 
13 | FC(OC(F)(F)Br)=C(C(F)(F)F)C(F)(F)F [1-(bromodifluoromethoxy)-2-(trifluoromethyl)-1,3,3,3-tetrafluoro-1-propene] | 187.0 | 7.06 (cal/cm^3)^1/2 | 78.6 C. | 
14 | FC(F)(Br)OC=C(C(F)(F)F)C(F)(F)F [1-(bromodifluoromethoxy)-2-(trifluoromethyl)-3,3,3-trifluoro-1-propene] | 151.6 | 7.26 (cal/cm^3)^1/2 | 78.3 C. | 
15 | FC(Br)=C(C(F)(F)F)C(F)(F)F [1-bromo-1,3,3,3-tetrafluoro-2-(trifluoromethyl)-1-propene] | 71.9 | 6.78 (cal/cm^3)^1/2 | 51.9 C. | 
16 | FC(F)(F)c1cc(C(F)(F)F)c(Br)c(C(F)(F)F)c1 [1-bromo-2,4,6-tris(trifluoromethyl)benzene] | 113.0 | 7.76 (cal/cm^3)^1/2 | 173.4 C. | 
17 | FC(F)(F)C(=CBr)C(F)(F)F [1-bromo-2-(trifluoromethyl)-3,3,3-trifluoropropene] | 49.4 | 6.95 (cal/cm^3)^1/2 | 49.3 C. | 
18 | FC(F)OC(Cl)C(F)(F)F (stereo not shown) [1-chloro-2,2,2-trifluoroethyl difluoromethyl ether, reference compound] | 50.2 | 7.58 (cal/cm^3)^1/2 | 48.8 C. | 
19 | COC(F)=C(C(F)(F)F)C(F)(F)F [1-methoxy-2-trifluoromethyl-1,3,3,3-tetrafluoro-1-propene] | 154.6 | 7.09 (cal/cm^3)^1/2 | 44.5 C. | 
20 | FC1C(F)C(F)(F)C(F)(F)C(F)C1(F)F (stereo not shown) [1H,2H,4H-nonafluorocyclohexane] | 18.5 | 7.02 (cal/cm^3)^1/2 | 65.0 C. | 
21 | FC(F)=C(F)OC(F)(F)C(F)(F)Br [2-bromo-1,1,2,2-tetrafluoroethoxy-trifluoroethene] | 33.0 | 7.30 (cal/cm^3)^1/2 | 81.9 C. | 
22 | C=C(Br)C(F)(F)C(F)(F)F [2-bromo-3,3,4,4,4-pentafluorobutene] | 10.5 | 7.19 (cal/cm^3)^1/2 | 66.1 C. | 
23 | Fc1c(F)c(F)c(C(F)(F)F)c(Br)c1F [2-bromoheptafluorotoluene] | 21.5 | 7.64 (cal/cm^3)^1/2 | 151.3 C. | 

Row | Compound | CS/CS113 [1, 4] | SP [2] | BP [3] | CS/CS113 [1]
24 | FC(F)OC(F)(F)C(F)Cl (stereo not shown) [2-chloro-1,1,2-trifluoroethyl difluoromethyl ether, reference compound] |  | 7.71 (cal/cm^3)^1/2 | 56.7 C. | 35.5
25 | CCOC(F)(F)C(F)Cl (stereo not shown) [2-chloro-1,1,2-trifluoroethyl ethyl ether] | 15.0 | 7.50 (cal/cm^3)^1/2 | 88.9 C. | 
26 | FC(C(F)C(F)(F)C(F)(F)F)C(F)(F)F (stereo not shown) [2H,3H-decafluoropentane] | 91.5 | 6.84 (cal/cm^3)^1/2 | 55.0 C. | 
27 | OCC(C(F)(F)F)(C(F)(F)F)C(F)(F)F [3,3,3-trifluoro-bis-2,2-(trifluoromethyl)-1-propanol] | 40.7 | 6.81 (cal/cm^3)^1/2 | 86.1 C. | 
28 | FC(F)(F)C(F)(F)C(Cl)Cl [3,3-dichloro-1,1,1,2,2-pentafluoropropane] | 16.7 | 7.26 (cal/cm^3)^1/2 | 48.5 C. | 
29 | FC(F)=C(F)C(F)(Br)C(F)(F)F (stereo not shown) [3-bromo-1,1,2,3,4,4,4-heptafluorobutene] | 21.9 | 6.75 (cal/cm^3)^1/2 | 47.5 C. | 
30 | FC=CC(F)(F)Br [3-bromo-1,3,3-trifluoropropene] | 12.9 | 7.73 (cal/cm^3)^1/2 | 41.5 C. | 
31 | C=C(F)C(F)(F)Br [3-bromo-2,3,3-trifluoropropene] | 6.1 | 7.66 (cal/cm^3)^1/2 | 41.6 C. | 
32 | C=C(F)C(F)(Br)C(F)(F)F (stereo not shown) [3-bromo-2,3,4,4,4-pentafluorobutene] | 4.9 | 7.20 (cal/cm^3)^1/2 | 69.7 C. | 
33 | C=CC(F)(F)Br [3-bromo-3,3-difluoro-1-propene] | 5.9 | 7.89 (cal/cm^3)^1/2 | 42.0 C. | 
34 | C=C(C(F)(F)F)C(F)(F)Br [3-bromo-3,3-difluoro-2-(trifluoromethyl)-propene] | 15.0 | 7.24 (cal/cm^3)^1/2 | 49.7 C. | 
35 | Fc1c(F)c(Br)c(F)c(C(F)(F)F)c1F [3-bromoheptafluorotoluene] | 21.1 | 7.66 (cal/cm^3)^1/2 | 153.0 C. | 
36 | FC(=C(C(F)(F)F)C(F)(F)F)C(F)(F)Br [4-bromo-1,1,1,3,4,4-hexafluoro-2-(trifluoromethyl)-2-butene] | 103.2 | 6.51 (cal/cm^3)^1/2 | 68.1 C. | 
37 | FC(F)(Br)C=C(C(F)(F)F)C(F)(F)F [4-bromo-1,1,1,4,4-pentafluoro-2-(trifluoromethyl)-2-butene] | 105.5 | 6.74 (cal/cm^3)^1/2 | 61.0 C. | 
38 | FC(F)=C(F)C(F)(F)C(F)(F)Br [4-bromo-1,1,2,3,3,4,4-heptafluorobutene] | 23.4 | 6.78 (cal/cm^3)^1/2 | 51.5 C. | 
39 | FC(F)=C(F)C(F)(F)CBr [4-bromo-1,1,2,3,3-pentafluorobutene] | 25.3 | 7.79 (cal/cm^3)^1/2 | 80.4 C. | 
40 | C=C(F)C(F)(F)C(F)(F)Br [4-bromo-2,3,3,4,4-pentafluorobutene] | 6.0 | 7.21 (cal/cm^3)^1/2 | 69.2 C. | 
41 | C=CC(F)(F)C(F)(F)Br [4-bromo-3,3,4,4-tetrafluoro-1-butene] | 5.8 | 7.44 (cal/cm^3)^1/2 | 55.0 C. | 
42 | C=CC(F)(Cl)C(F)(F)Br (stereo not shown) [4-bromo-3-chloro-3,4,4-trifluoro-1-butene] | 0.8 | 7.76 (cal/cm^3)^1/2 | 99.7 C. | 
43 | Fc1c(F)c(C(F)(F)F)c(F)c(F)c1Br [4-bromoheptafluorotoluene] | 37.9 | 7.66 (cal/cm^3)^1/2 | 151.3 C. | 
44 | FC(F)(F)COCC(F)(F)Br [(2,2,2-trifluoroethyl)(2-bromo-2,2-difluoroethyl)ether] | 52.1 | 7.64 (cal/cm^3)^1/2 | 73.0 C. | 
45 | F/C(OC(F)(F)Br)=C(/F)C(F)(F)F [(E)-1-(bromodifluoromethoxy)-1,2,3,3,3-pentafluoro-1-propene] | 70.1 | 7.25 (cal/cm^3)^1/2 | 65.2 C. | 
46 | FC(F)(Cl)C(F)(Cl)Cl [CFC-113, 1,1,2-trichloro-1,2,2-trifluoroethane, reference compound] |  |  | 47.6 C. | 

Source: US7736537B1, “Replacement solvents having improved properties for refrigeration flushes” (Mainstream Engineering Corp., priority 2008, dated 2010)
